# Reference: US20080028486A1, “Aluminium Tolerant Barley” (COMMONWEALTH SCIENTIFIC AND INDUSTRIAL RESEARCH ORGANISATION, priority 2004, published 2008)
# Key:
# [1] = test system: control barley plants (wild type and vector only, cv Golden Promise); test: Al tolerance assay: root elongation in hydroponic culture, control plants; assay type: in vivo, Hordeum vulgare
# Description: (§1) Plants in hydroponic culture were assessed for Al tolerance using a hydroponic solution described as follows, supplemented with a range of AlCl3 concentrations. The hydroponic solution was made with distilled or deionised water containing 500 μM KNO3, 500 μM CaCl2, 500 μM NH4NO3, 150 μM MgSO4, 100 μM KH2PO4, 2 μM Fe:EDTA, 11 μM H3BO3, 2 μM MnCl2, 0.35 μM ZnCl2 and 0.2 μM CuCl2 adjusted to pH 5.5. The Al screening solution was the same solution as above except it contained 10 μM KH2PO4 instead of 100 μM, 2 μM FeCl3 instead of Fe:EDTA and was adjusted to pH 4.3 instead of 5.5, and was supplemented with AlCl3 at the stated concentration. The plants were grown using these solutions at a temperature of 18-25° C., usually at 20° C.
# (§2) Al tolerance was assessed by determining root elongation of plants grown in hydroponic culture in the continual presence of added Al. The three barley T0 lines that were transformed with ALMT1 and expressing the transgene in the roots were tested in a range of Al levels. […] The ALMT1 gene therefore provided a dramatic enhancement of Al tolerance on the barley plants, to a level that has not been seen previously.
# [2] = test system: transgenic barley T0 lines 4, 5 and 6 expressing ALMT1; test: Al tolerance assay: root elongation in hydroponic culture, ALMT1 transgenic barley; assay type: in vivo, Hordeum vulgare
# Description: as §1, §2
# [3] = test system: root apices of transgenic barley expressing ALMT1; test: Malate efflux from excised root apices of transgenic barley expressing ALMT1; assay type: cell-based, Hordeum vulgare; conditions: for activation of malate efflux: 50 μM La or Er in basal solution
# Description: FIG. 4—Properties of malate efflux from root apices of transgenic barley expressing ALMT1. • (A) Effect of Al concentration on malate efflux (nmoles/h/apex). Excised root apices from ALMT1 line 5 (solid circles) were exposed to Al treatments from 0 to 50 μM in basal solution for 1 h. Error bars show ±standard errors of the means (n=3). The solid squares show efflux from root apices of the control line transformed with the empty vector. • (B) Effects of niflumic acid (nif; 0 to 100 μM), La (50 μM), Er (50 μM) and basal solution (0.2 mM CaCl2 pH 4.3) on malate efflux from root apices of line 5. Excised root apices from line 5 were exposed to the various treatments in basal solution for 1 h. Error bars show ±standard errors of the means (n=3).
# Malate efflux from root segments was assayed using a modification of methods described by Ryan et al. (1995a). Unless stated otherwise, 4 root apices 3 mm long were incubated with shaking in 1 ml of 0.2 mM CaCl2 (pH 4.3) for approximately 1 h. The apices were then rinsed with the CaCl2 solution three times and replaced with 1 ml of the same solution (control) or 1 ml of treatment solution (0.2 mM CaCl2 with added treatment at pH 4.3). After an incubation that typically lasted for 1 h, the solution was removed, dried and the residue re-suspended in 200 μl of buffer used for the spectrographic assay of malate (0.25 M glycine, 0.20 M hydrazine and 2.7 mM NAD adjusted to pH 9). A subsample (100 μl) was transferred to a micro-cuvette and the increase in absorbance at 340 nm measured 6 min after addition of 1 μl of malate dehydrogenase (5 mg/ml) was used to calculate the amount of malate by comparison to a standard curve.
# [4] = test system: root apices of transgenic barley expressing ALMT1; test: K+ efflux from excised root apices of transgenic barley line 5; assay type: cell-based, Hordeum vulgare; conditions: line 5 excised apices, 50 μM Al, mean ±SE, n=4
# Description: Al-activated malate efflux from root apices of transgenic barley expressing ALMT1 was accompanied by the efflux of K^+. Net K^+ effluxes from excised apices of line 5 were calculated by subtracting corresponding values obtained for the vector only control line resulting in an efflux of 0.4±0.3 nmoles K^+/h/apex in the absence of Al and an efflux of 5.2±1.0 nmoles K^+/h/apex in the presence of 50 μM Al (means ±SE; n=4).
smiles,measurement,setting,value
"[Cl][Al]([Cl])[Cl] [AlCl3, aluminium chloride]",inhibition of root growth,[1]; 2 μM AlCl3,50%
same,inhibition of root growth,[1]; 6 μM AlCl3,85-90%
same,inhibition of root growth,"[2]; ALMT1 line 5, hydroponic culture, 20M AlCl3 as printed",did not show significant inhibition of root growth
same,inhibition of root growth,"[2]; ALMT1 transgenic plants, hydroponic culture, 2, 6 or 12 μM AlCl3",did not exhibit any significant inhibition of root growth
same,rate of malate efflux from root apices,"[3]; Al-activated efflux, transgenic barley",approx. 1 nmole/apex/h
same,added Al concentration up to which malate efflux increases before starting to level off,"[3]; line 5 root apices, Al 0 to 50 μM in basal solution (0.2 mM CaCl2 pH 4.3), 1 h",about 25 μM
same,net K+ efflux (vector only control values subtracted),[4],5.2±1.0 nmoles K+/h/apex
[La] [Lanthanum],activation of malate efflux,"[3]; line 5 root apices, 1 h",ineffective in activating malate efflux
[Er] [erbium],activation of malate efflux,"[3]; line 5 root apices, 1 h","capable of eliciting malate efflux, albeit at a lower level than observed for Al"
O=C(O)c1cccnc1Nc1cccc(C(F)(F)F)c1 [niflumic acid],effect on malate efflux,"[3]; line 5 root apices, niflumic acid 0 to 100 μM, basal solution, 1 h",inhibited
